Activity calls are given as the source filed them. How the calls were made is not given here.
These compounds were tested on 697B cells, BCR-induced NF-kB luciferase reporter luminescence (assay: inhibitors of BCR-induced NF-kB activation, dose response, 697B cells, luciferase luminescence (AID 489023)).
With `CC(C)c1ccc(/C=C2\SC(=S)N(CCC(=O)NCCCn3ccnc3)C2=O)cc1` the IC50 was 16.6 µM. `Cc1ccc(-c2nn3c(C)nnc3c3ccccc23)cc1S(=O)(=O)NCc1ccco1` was tested, and the IC50 was 29.3 µM (inactive). For `Cc1c(CCC(=O)N2CCC(C(=O)O)(c3ccccc3)CC2)c(=O)oc2cc3oc4c(c3cc12)CCCC4`, the IC50 was > 80 µM (inactive). In the case of `Cc1nn(C)c(C)c1CN(C)S(=O)(=O)c1ccc2ccccc2c1`, the IC50 is reported as > 80 µM (inactive). `CCOc1ccc(/C=C2\SC(=S)N(CCC(=O)Nc3ccc(C(=O)O)cc3)C2=O)cc1` gave an IC50 of 1.35 µM. `COc1ccc(/C=N\NC(=O)c2sccc2C)cc1Cn1nc(C)cc1C` was tested, and the IC50 was 55.9 µM (inactive). With `Oc1cc(O)cc(-c2cc3ccc(O)cc3o2)c1` the IC50 was > 80 µM (inactive). With `COc1ccc(-c2nsc(SCC(=O)Nc3cc(C)on3)n2)cc1` the IC50 was 46.3 µM (inactive). For `COc1ccc(N(CC(=O)N2CCN(c3ccc(Cl)cc3)CC2)S(=O)(=O)c2c(C)n[nH]c2C)cc1`, the IC50 was > 80 µM (inactive). In the case of `COc1ccc(S(=O)(=O)Nc2cc3c(C(C)=O)c(C)oc3c3ccccc23)cc1`, the IC50 is reported as > 80 µM (inactive). `COc1ccc(-c2ccoc2)cc1[C@H]1[C@H]2C=CC[C@@H](C)[C@@H]2C(=O)N1Cc1ccccc1` was tested, and the IC50 was > 80 µM (inactive). For `CCN(C(=O)CN1C(=O)NC(c2ccccc2)(c2ccc(C)c(C)c2)C1=O)C1CCCCC1` (centres undefined), the IC50 was 48.4 µM (inactive). `COc1cc(OC)c(/C=N/NC(N)=S)cc1Br` was tested, and the IC50 was 34.2 µM (inactive). Compound `COc1cc(OC)cc(-c2cc3nc(C)c(CCC(=O)NCc4ccccc4)c(C)n3n2)c1` has an IC50 of 4.7 µM. In the case of `CC1CCC/C=C/C2CC(O)CC2C(O)/C=C/C(=O)O1` (centres undefined), the IC50 is reported as > 80 µM (inactive). In the case of `CC(C)c1[nH]nc2c1C(c1ccco1)C(C#N)=C(N)O2` (centres undefined), the IC50 is reported as > 80 µM (inactive). `Cc1nn(C(C)(C)C)c(OC(=O)c2ccc(Br)o2)c1Sc1ccccc1` was tested, and the IC50 was > 80 µM (inactive). `CC1(c2nnc(-c3cccc(Cl)c3)o2)CC(c2cccc(Cl)c2)=NO1` (centres undefined) was tested, and the IC50 was > 80 µM (inactive). For `C=CCn1c(O)c(C(C)=NC(C)c2ccccc2)c(=O)[nH]c1=O` (centres undefined), the IC50 was > 80 µM (inactive). `O=C(NNC(=O)C12CC3CC(CC(C3)C1)C2)c1cccc(O)c1` showed an IC50 of 16.5 µM. With `CC1=CC(C)(C)Nc2ccc(OC(=O)CN3C(=O)CCC3=O)cc21` the IC50 was 8.56 µM. For `COc1ccc(NS(=O)(=O)c2ccc(-c3coc(C)n3)cc2)cc1OC`, the IC50 was > 80 µM (inactive). With `CCOC(=O)Cc1ccc(NC(=O)c2ccc(C(C)(C)C)cc2)cc1` the IC50 was < 0.16 µM. For `Cc1ccc(C)c(OCc2ccc(C(=O)NN)o2)c1`, the IC50 was > 80 µM (inactive). For `CN(C)S(=O)(=O)c1ccc(NC(=O)N2CCN(c3ccccc3)CC2)cc1`, the IC50 was > 80 µM (inactive). With `COc1cc(Br)c(C(=O)c2nccc3cc(OC)c(OC)cc23)cc1OC` the IC50 was > 80 µM (inactive). For `O=C(CN1C(=O)c2ccccc2S1(=O)=O)c1ccc(OC(F)F)cc1`, the IC50 was 1.83 µM. `CCOc1cc(/C=N\Nc2nc(Nc3ccccc3)nc(N3CCOCC3)n2)ccc1OC(=O)c1ccco1` was tested, and the IC50 was 1.25 µM. `C=CCOc1ccc(/C=C2\SC(=S)N(CCC(=O)O)C2=O)cc1` showed an IC50 of 0.63 µM. For `Cc1[nH]c2ccccc2c1/C=N/Nc1nc(Nc2ccccc2)nc(N2CCOCC2)n1`, the IC50 was 3.35 µM. In the case of `CCc1ccc(/C=C2\SC(=S)N(CCC(=O)NC3=NCCS3)C2=O)cc1`, the IC50 is reported as 12.4 µM. `Cn1c(=O)cc(OCC(=O)N2CCC3(CC2)OCCO3)c2ccccc21` was tested, and the IC50 was 67.5 µM (inactive). `C=CCOc1ccccc1CN(C(=O)CCl)c1ccc2c(c1)OCO2` showed an IC50 of 0.72 µM. In the case of `CC1=CC(C)(C)Nc2ccc(OC(=O)C(C)N3C(=O)c4ccccc4C3=O)cc21` (centres undefined), the IC50 is reported as 6.85 µM. `Cc1ccc(NC(=O)O/N=C/c2c(C)nn(C(C)(C)C)c2C)cc1Cl` was tested, and the IC50 was < 0.16 µM. `COc1cccc(/C=C2/SC(=S)N(CCCC(=O)Nc3ccc(O)cc3)C2=O)c1` showed an IC50 of 1.49 µM. For `CCn1c(=O)c2cc(C(=O)NC(C)C)sc2c2ccccc21`, the IC50 was > 80 µM (inactive). For `COc1ccc(-n2ncc3c(N4CCC(C(N)=O)CC4)ncnc32)cc1`, the IC50 was > 80 µM (inactive). In the case of `CCN1C(=O)c2cccc3c(S(=O)(=O)Nc4ccccn4)ccc1c23`, the IC50 is reported as 25.2 µM (inactive). For `CC1(C)CC2CC(C)(CN2S(=O)(=O)c2ccc(C(=O)Nc3ccc(S(=O)(=O)N4CCOCC4)cc3)cc2)C1` (centres undefined), the IC50 was > 80 µM (inactive). With `COc1ccc(/C=C2\SC(=O)N(CCCC(=O)Nc3ccc(C(=O)O)cc3)C2=O)cc1OC` the IC50 was 7.83 µM. With `CCC(C)NC(=O)c1c(N)n(/N=C/c2ccccn2)c2nc3ccccc3nc12` (centres undefined) the IC50 was 23.2 µM (inactive). With `COc1cc(C2C(C#N)=C(N)Oc3cc(N)ccc32)cc(OC)c1OC` (centres undefined) the IC50 was > 80 µM (inactive). With `CCOC(=O)N1CCN(CC(=O)Nc2ccc([N+](=O)[O-])cc2C(=O)Nc2ccccc2F)CC1` the IC50 was 29.1 µM (inactive). `CCCOc1ccc(NC(=O)C(=O)NCCCn2ccnc2)cc1` was tested, and the IC50 was 14.2 µM. With `CCOC(=O)c1cc2c(=O)n3ccccc3nc2n(CC(C)C)c1=NC(=O)c1c(-c2c(F)cccc2Cl)noc1C` the IC50 was > 80 µM (inactive). With `Cc1cccc(C(=O)Nc2ccc(CC(=O)O)cc2)c1` the IC50 was 24.1 µM (inactive). `CCCCCOc1ccc(NC(=O)C(=O)NCCCn2ccnc2)cc1` was tested, and the IC50 was 4.78 µM. `N=c1ccn(Cc2c(Cl)cccc2Cl)cc1` was tested, and the IC50 was > 80 µM (inactive).
